The labels stand for the following.
B1: PGSGGGGSPYSETPNDQKPNPHYKVSGTKGPEEAAKKEEAAKKPAYSETPNDQKPNPHYKVSGTKGPGGHHHHHH (peptide)
chain: PGSGGGGSPYSETPNDQKPNPHYKVSGTKGPEEAAKKEEAAKKPAYSETPNDQKPNPHYKVSGTKGPGGHHHHHH
modifications: Synthetic peptide composition
B2: PGSGGGGSPYSETPNDQKPNPHYKVSGTKGPEPEPEPEPIPEPPKEAPVVIEKPKPKPKPKPKPPAYSETPNDQKPNPHYKVSGTKGPGGHHHHHH (peptide)
chain: PGSGGGGSPYSETPNDQKPNPHYKVSGTKGPEPEPEPEPIPEPPKEAPVVIEKPKPKPKPKPKPPAYSETPNDQKPNPHYKVSGTKGPGGHHHHHH
modifications: Synthetic peptide composition
B3: PGSGGGGSPYSETPNDQKPNPHYKVSGTKGGGYSETPNDQKPNPHYKVSGTKGGGYSETPNDQKPNPHYKVSGTKGPGGHHHHHH (peptide)
chain: PGSGGGGSPYSETPNDQKPNPHYKVSGTKGGGYSETPNDQKPNPHYKVSGTKGGGYSETPNDQKPNPHYKVSGTKGPGGHHHHHH
modifications: Synthetic peptide composition

One assay can be described thus: Peptide-mediated deposition of Co-NTA beads on bovine enamel, SEM. The assay is classed as binding. To be noted: 20 μM peptide, Co-NTA beads, SEM 1000×, 2500×, 5000×. The text has this: Bovine enamel incisors were obtained from SE Dental (Baton Rouge, La.). Teeth were sectioned and cut into enamel slabs approx. 5 mm on each side using a DREMEL® rotary (Robert Bosch LLC, Farmington Hills, Mich.) saw with a diamond blade. The enamel slabs were cleaned and embedded in a well plate contained molding material so as to only expose the enamel surface in the well.
Polystyrene beads with cobalt-NTA coating (DYNABEADS® TALON®) were obtained from Invitrogen (item#101.02D) as a slurry of 40 mg/mL. The slurry (50 μL; 2 mg beads) was resuspended and washed with 700 μL of binding buffer (50 mM sodium phosphate, pH 8.0, 300 mM NaCI, 0.01% TWEEN® 20) in preparation for His6 binding.
Peptides were dissolved in phosphate buffered saline (Pierce, pH 7.2) at a concentration of 20 μM. Peptide solution (500 μL) was placed in each well containing an enamel slab. Enamel slabs exposed to only PBS in this step were used as a control. Samples were incubated with peptide solution with gentle agitation for 30 min. The peptide solution and PBS were removed from the well plate and each well was rinsed 3 times with repeated additions of PBS. TALON® beads (50 μL) were added to each well and incubated with gentle agitation for 30 min. The TALON® solution was removed and the samples were washed three times with the same binding buffer.
Each enamel sample was removed from the well plate and rinsed again with buffer. […] The enamel slabs were further examined by Electron Microscopy (Hitachi TM-1000 Tabletop SEM Microscope) at 1000×, 2500× and 5000× magnification. […] Little to no beads were found on the no peptide control. […]
Take B1: the “Bead coverage by electron microscopy (in words)” value is recorded as “bead binding at a lower degree than the other samples”.

Still in this assay, the particulars now being: 20 μM peptide, then Co-NTA TALON beads; SEM at 5000X.
With “PHMASMTGGQQMGSYSETPNDQKPNPHYKVSGTKGPEEAAKKEEAAKKPAYSETPNDQKPNPHYKVSGTKGSGGGGSGSGGGGSLNSMSDKHHGHQNTATRNQHGGGLNSMSDKHHGHQNTATRNQHGGHHHHHH [DE008]”, the “Particles per um^2 at 5000X” value stood at 0.31 Particles per um^2.

In the case of B2, the “Particles per um^2 at 5000X” value is 0.39 Particles per um^2.

For the molecule B3, the “Particles per um^2 at 5000X” value is on record as 0.44 Particles per um^2.

As to B1, the “Particles per um^2 at 5000X” value stood at 0.17 Particles per um^2.

The next assay is described as follows: Phage ELISA, bovine polished enamel-binding assay. To be noted: over 10^10 pfu phage, A450. As to the method: A total of 11 selected phage candidates (Example 3) was used in a phage ELISA experiment. Purified phage lysates were used for binding to the enamel blocks using an anti-M13 phage antibody conjugated to horseradish-peroxidase, followed by the addition of chromogenic agent TMB. The plates were read at A450 nm.
For each phage candidate to be tested, the polished and unpolished enamel blocks were incubated for 1 h at room temperature with 200 μL of blocking buffer, consisting of 2% non-fat dry milk (Schleicher & Schuell, Inc.) in TBS. […] The tube was rinsed 6 times with wash buffer consisting of TBST-0.05%. The wells were filled with 200 μL of TBST-0.5% containing 1 mg/mL BSA and then 10 μL (over 10^10 pfu) of purified phage stock was added. The samples were incubated at room temperature for 60 min with slow shaking. The non-binding phage was removed by washing 6 times with TBST-0.5%. […] The conjugate solution was removed and was washed 6 times with TBST-0.5%. […] BoEn P means bovine polished enamel and BoEn means bovine enamel.
A general note: An ELISA detects its analyte on a solid surface through an enzyme-linked reagent.
In the case of “EPPTRTRVNNHTVTVQAQQH (Synthetic oral-surface binding peptide) [BoEn P2]”, the O.D.450 is given as 0.641.

With “GYCLRGDEPAVCSG (Synthetic oral-surface binding peptide) [BoEn P3]”, the O.D.450 was 0.665.

With “NFCETQLDLSVCTV (Synthetic oral-surface binding peptide) [BoEn P5]”, the O.D.450 is 0.797.

For the molecule “NTCQPTKNATPCSA (Synthetic oral-surface binding peptide) [BoEn P6]”, the O.D.450 came to 0.83.

In turn, “THNMSHFPPSGHPKRTAT (Synthetic oral-surface binding peptide) [BoEn P8]” yielded an O.D.450 of 2.02.

Values taken from US8354381B2, “Peptide compositions for oral care systems” (E I du Pont de Nemours and Company, priority 2009, dated 2013).
